In PMC11083148, “Structure–Activity Relationship Studies on Highly Functionalized Pyrazole Hydrazones and Amides as Antiproliferative and Antioxidant Agents” (International Journal of Molecular Sciences, 2024):

Experiments:
Type in all cases: cell-based
[1] = test system: PC-3; experiment: NCI screening, Prostate Cancer; conditions: PC-3, Prostate Cancer; 10 µM
Experimental: (§1) In addition, 11a and 17 (representative compounds of the acylhydrazone and amide series) were selected by the National Cancer Institute (NCI, Germantown, MD, USA) and tested at a fixed concentration of 10 µM against a panel of fifty-nine different cancer cell lines, including highly metastatic tumors (Table 2).

[2] = test system: DU-145; experiment: NCI screening, Prostate Cancer; conditions: DU-145, Prostate Cancer; 10 µM
Experimental: as §1

[3] = test system: SF-295; experiment: NCI screening, CNS Cancer; conditions: SF-295, CNS Cancer; 10 µM
Experimental: as §1

[4] = test system: U251; experiment: NCI screening, CNS Cancer; conditions: 10 µM
Experimental: as §1

[5] = test system: SNB-75; experiment: NCI screening, CNS Cancer; conditions: SNB-75, CNS Cancer; 10 µM
Experimental: as §1

[6] = test system: SF-539; experiment: NCI screening, CNS Cancer; conditions: SF-539, CNS Cancer; 10 µM
Experimental: as §1

[7] = test system: SNB-19; experiment: NCI screening, CNS Cancer; conditions: SNB-19, CNS Cancer; 10 µM
Experimental: as §1

[8] = test system: SF-268; experiment: NCI screening, CNS Cancer; conditions: SF-268, CNS Cancer; 10 µM
Experimental: as §1

[9] = test system: NCI/ADR-RES; experiment: NCI screening, Ovarian Cancer; conditions: 10 µM
Experimental: as §1

[10] = test system: OVCAR-4; experiment: NCI screening, Ovarian Cancer; conditions: OVCAR-4, Ovarian Cancer; 10 µM
Experimental: as §1

[11] = test system: IGROV1; experiment: NCI screening, Ovarian Cancer; conditions: 10 µM
Experimental: as §1

[12] = test system: OVCAR-5; experiment: NCI screening, Ovarian Cancer; conditions: OVCAR-5, Ovarian Cancer; 10 µM
Experimental: as §1

[13] = test system: OVCAR-8; experiment: NCI screening, Ovarian Cancer; conditions: OVCAR-8, Ovarian Cancer; 10 µM
Experimental: as §1

[14] = test system: SK-OV-3; experiment: NCI screening, Ovarian Cancer; conditions: SK-OV-3, Ovarian Cancer; 10 µM
Experimental: as §1

[15] = test system: MDA-MB-231/ATCC; experiment: NCI screening, Breast Cancer; conditions: 10 µM
Experimental: as §1

[16] = test system: BT-549; experiment: NCI screening, Breast Cancer; conditions: BT-549, Breast Cancer; 10 µM
Experimental: as §1

[17] = test system: T-47D; experiment: NCI screening, Breast Cancer; conditions: 10 µM
Experimental: as §1

[18] = test system: HeLa; experiment: MTT assay, antiproliferative activity; conditions: Homo sapiens; for activity at 10 µM: 48h, read-out: Mean Growth Percentage
[19] = test system: SKMEL28; experiment: MTT assay, antiproliferative activity; conditions: Homo sapiens; for Mean growth percentage at 10 µM: SK-MEL-28, 10 µM, 48h
[20] = test system: SKOV3; experiment: MTT assay, antiproliferative activity; conditions: Homo sapiens; for Mean growth percentage at 10 µM: SK-OV-3, 10 µM, 48h
[21] = test system: MCF7; experiment: MTT assay, antiproliferative activity; conditions: Homo sapiens; for mean growth percentage (cell growth remaining vs control) at 10 µM: 48h
[22] = test system: A549; experiment: MTT assay, antiproliferative activity; conditions: Homo sapiens, 48h, read-out: Mean Growth Percentage
Summary of the method: (§2)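 Cells plated 16 h, then exposed to compounds at 10 μM final for 48 h at 37 °C, 5% CO2. MTT added for 4 h, formazan dissolved in DMSO, absorbance read at 570 nm; values as percent of DMSO-only control, mean of three experiments in six replicates.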

[23] = test system: Hep-G2; experiment: MTT assay, antiproliferative activity; conditions: Homo sapiens, HepG2, 48h
Summary of the method: as §2

[24] = test system: MDA-MB231; experiment: MTT assay, antiproliferative activity; conditions: Homo sapiens, MDA-MB-231, 48h
Summary of the method: as §2

[25] = test system: SK-BR3; experiment: MTT assay, antiproliferative activity; conditions: Homo sapiens, SK-BR-3, 48h
Summary of the method: as §2

Row | Structure (SMILES) | Growth Percentage (%) [1] | Growth Percentage (%) [2] | Growth Percentage (%) [3] | Growth Percentage (%) [4] | Growth Percentage (%) [5] | Growth Percentage (%) [6] | Growth Percentage (%) [7] | Growth Percentage (%) [8] | Growth Percentage (%) [9] | Growth Percentage (%) [10] | Growth Percentage (%) [11] | Growth Percentage (%) [12] | Growth Percentage (%) [13] | Growth Percentage (%) [14] | Growth Percentage (%) [15] | Growth Percentage (%) [16] | Growth Percentage (%) [17] | activity at 10 µM [18] | Mean growth percentage at 10 µM [19] | Mean growth percentage at 10 µM [20] | other results
1 | CCOC(=O)c1c(NC(=O)C2CC2)nn(C)c1Nc1ccccc1 [compound 17, Ethyl 3-(cyclopropanecarboxamido)-1-methyl-5-(phenylamino)-1H-pyrazole-4-carboxylate] | 95.84% | 104.67% | 102.51% | 100.80% | 94.70% | 97.42% | 98.39% | 101.17% | 103.29% | 99.35% | 100.75% | 99.49% | 101.92% | 99.73% | 100.37% | 118.46% | 93.07% | 109% | 85.9% | 86.9% | mean growth percentage (cell growth remaining vs control) at 10 µM [21]: 92.8%; activity at 10 µM [22]: 75.8%; Mean growth percentage at 10 µM [23]: 103%; Mean growth percentage at 10 µM [24]: 127%; Mean growth percentage at 10 µM [25]: 106%
2 | COc1ccc(/C=N/NC(=O)c2c(N)nn(C)c2Nc2ccccc2)cc1 [11a, (E)-3-amino-N′-(4-methoxybenzylidene)-1-methyl-5-(phenylamino)-1H-pyrazole-4-carbohydrazide] | 55.90% | 76.34% | 98.52% | 33.33% | 35.14% | 40.20% | 36.78% | 58.65% | 32.98% | 87.03% | 39.64% | 76.88% | 70.80% | 49.64% | 65.06% | 14.04% | 42.38% | 25% | 49.4% | 43.6% | IC50 ([18]; MTT): 4.63 ± 0.41 µM; IC50 ([19]; SK-MEL-28, MTT): 9.45 ± 0.66 µM; IC50 ([20]; SK-OV-3, MTT): 6.88 ± 0.23 µM; mean growth percentage (cell growth remaining vs control) at 10 µM [21]: 33.6%; IC50 ([21]; MTT): 6.9 ± 0.34 µM; activity at 10 µM [22]: 60.8%; Mean growth percentage at 10 µM [23]: 75%; Mean growth percentage at 10 µM [24]: 72%; Mean growth percentage at 10 µM [25]: 57%
